Legend:
Pseudomonas aeruginosa [1] = assay: Antibacterial activity against Pseudomonas aeruginosa PAO1 assessed as inhibition of bacterial growth incubated for 24 hrs by serial dilution method; format: functional
Pseudomonas aeruginosa [2] = assay: Antibiofilm activity against Pseudomonas aeruginosa PAO1 assessed as inhibition of biofilm formation incubated for 24 hrs by crystal violet staining based analysis; format: functional, organism-based; conditions: PAO1, 24 h
Pseudomonas aeruginosa [3] = assay: Antibiofilm activity against Pseudomonas aeruginosa PA14 assessed as inhibition of biofilm formation incubated for 24 hrs by crystal violet staining based analysis; format: functional, organism-based; conditions: PA14, 24 h
Pseudomonas aeruginosa [4] = assay: Antibiofilm activity against Pseudomonas aeruginosa PAO1 assessed as reduction in pFe(III) content incubated for 24 hrs; format: functional
Pseudomonas aeruginosa [5] = assay: Antibacterial activity against Pseudomonas aeruginosa PAO1 infected in BALB/c mouse wound infection model assessed as bacterial survival rate in wound at 0.5 mg/mL administered to wound once a day for 3 days in dropwise manner; format: functional; conditions: PAO1, 72 h, time 3 day
Pseudomonas aeruginosa [6] = assay: Antibacterial activity against Pseudomonas aeruginosa PAO1 infected in BALB/c mouse wound infection model assessed as reduction in wound area at 0.5 mg/mL administered to wound once a day for 3 days and measured after 9 days in dropwise manner; format: functional; set-up: scale not given: the % may be the effect or the level left; conditions: time 12 day
Pseudomonas aeruginosa [7] = assay: Antibacterial activity against Pseudomonas aeruginosa PAO1 infected in BALB/c mouse wound infection model assessed as reduction in wound area at 0.0025 mg/mL administered to wound once a day for 3 days and measured after 9 days in dropwise manner; format: functional; set-up: scale not given: the % may be the effect or the level left; conditions: time 12 day

Row | SMILES | MIC (Pseudomonas aeruginosa [1]) [µM] | IC50 (Pseudomonas aeruginosa [2]) [µM] | IC50 (Pseudomonas aeruginosa [3]) [µM] | Activity (Pseudomonas aeruginosa [4]) | survival at 500 µg/mL (Pseudomonas aeruginosa [5]) [%] | Activity (Pseudomonas aeruginosa [6]) [%] | Activity (Pseudomonas aeruginosa [7]) [%]
1 | COc1ccc2nc(NCc3cn(CC(=O)NO)nn3)sc2c1 | > 256 | 1.94 | 5.09 |  |  |  | 
2 | O=C(Cn1cc(CNc2nc3ccc(C(F)(F)F)cc3s2)nn1)NO | > 256 | 2.03 | 5.42 |  |  |  | 
3 | COc1ccc2nc(NCC(=O)NCCCC(=O)NO)sc2c1 | > 256 | 5.15 | 15.2 |  |  |  | 
4 | O=C(CCCCNC(=O)CNc1nc2cc(F)ccc2s1)NO | > 256 | 14.7 | 28.9 |  |  |  | 
5 | Cc1c(O)c(=O)ccn1C [DEFERIPRONE] |  |  |  | 20.13 |  |  | 
6 | CC[C@H]1OC(=O)[C@H](C)[C@@H](O[C@H]2C[C@@](C)(OC)[C@@H](O)[C@H](C)O2)[C@H](C)[C@@H](O[C@@H]2O[C@H](C)C[C@H](N(C)C)[C@H]2O)[C@](C)(O)C[C@@H](C)CN(C)[C@H](C)[C@@H](O)[C@]1(C)O [AZITHROMYCIN] | > 256 | 11 | 38.5 |  |  |  | 
7 | NC[C@H]1O[C@H](O[C@H]2[C@H](O)[C@@H](O[C@H]3O[C@H](CO)[C@@H](O)[C@H](N)[C@H]3O)[C@H](N)C[C@@H]2N)[C@H](N)C[C@@H]1O [TOBRAMYCIN] |  |  |  |  | 0.22 | 36 | 41
8 | O=C(CCCCCNC(=O)CNc1nc2ccc(C(F)(F)F)cc2s1)NO | > 256 | 3.67 | 11.7 |  |  |  | 
9 | COc1cccc(NCC(=O)NCCCCC(=O)NO)c1 | > 256 | > 80 | > 100 |  |  |  | 
10 | O=C(Cc1ccc(CNC(=O)CNc2nc3cc(F)ccc3s2)cc1)NO | > 256 | 3.17 | 7.9 |  |  |  | 
11 | O=C(Cn1cc(CNc2nc3ccc(Cl)cc3s2)nn1)NO | > 256 | 10.2 | 17.5 |  |  |  | 
12 | COc1ccc2nc(NCC(=O)NCCCCCC(=O)NO)sc2c1 | > 256 | 1.6 | 3.85 |  |  |  | 
13 | O=C(CCCCNC(=O)CNc1nc2ccc(C(F)(F)F)cc2s1)NO | > 256 | 1.72 | 4.26 |  |  |  | 
14 | Cc1ccc2nc(NCC(=O)Nc3ccc(CC(=O)NO)cc3)sc2c1 | > 256 | 1.64 | 4.33 |  |  |  | 
15 | COc1ccc2sc(NCC(=O)NCCCCC(=O)NO)nc2c1 | > 256 | 1.29 | 3.41 |  |  |  | 
16 | O=C(CCCCCCNC(=O)CNc1nc2ccc(C(F)(F)F)cc2s1)NO | > 256 | 3.25 | 6.65 |  |  |  | 
17 | O=C(CCCCNC(=O)CNc1nc2ccc(F)cc2s1)NO | > 256 | 2.01 | 5.26 |  |  |  | 
18 | O=C(CCCCCNC(=O)CNc1nc2ccc(Cl)cc2s1)NO | > 256 | 20.9 | 36.6 |  |  |  | 
19 | O=C(Cc1ccc(CNC(=O)CNc2nc3ccc(Br)cc3s2)cc1)NO | > 256 | 1.17 | 2.93 |  |  |  | 
20 | Cc1ccc2nc(NCC(=O)NCCCCC(=O)NO)sc2c1 | > 256 | 0.79 | 2.21 |  |  |  | 
21 | COc1ccc2nc(NCC(=O)NC3CCC(C(=O)NO)CC3)sc2c1 (centres undefined) | > 256 | 6.64 | 14.7 |  |  |  | 
22 | COc1ccc(NCC(=O)NCCCCC(=O)NO)cc1 | > 256 | > 80 | > 100 |  |  |  | 
23 | O=C(CCCCNC(=O)CNc1nccs1)NO | > 256 | 14.8 | 30.9 |  |  |  | 
24 | COc1cccc2sc(NCC(=O)Nc3ccc(CC(=O)NO)cc3)nc12 | > 256 | 1.42 | 3.92 |  |  |  | 

Row | SMILES | MIC (Pseudomonas aeruginosa [1]) [µM] | IC50 (Pseudomonas aeruginosa [2]) [µM] | IC50 (Pseudomonas aeruginosa [3]) [µM] | Activity (Pseudomonas aeruginosa [4]) | survival at 500 µg/mL (Pseudomonas aeruginosa [5]) [%] | Activity (Pseudomonas aeruginosa [6]) [%] | Activity (Pseudomonas aeruginosa [7]) [%]
25 | COc1cccc2sc(NCC(=O)NCc3ccc(CC(=O)NO)cc3)nc12 | > 256 | 2.85 | 7.78 |  |  |  | 
26 | CCOc1ccc2nc(NCC(=O)NCc3ccc(CC(=O)NO)cc3)sc2c1 | > 256 | 4 | 13.4 |  |  |  | 
27 | O=C(CCCCNC(=O)CNc1nc2ccc(Cl)cc2s1)NO | > 256 | 2.05 | 5.67 |  |  |  | 
28 | O=C(CCCCNC(=O)CNc1nc2cc(Cl)ccc2s1)NO | > 256 | 7.02 | 15 |  |  |  | 
29 | O=C(CCCCCCNC(=O)CNc1nc2ccc(Cl)cc2s1)NO | > 256 | 13.6 | 24.4 |  |  |  | 
30 | COc1ccc2nc(NCC(=O)NCCCCN)sc2c1 | > 256 | > 80 | > 100 |  |  |  | 
31 | COC(=O)CCCCNC(=O)CNc1nc2ccc(OC)cc2s1 | > 256 | 14.7 | 18.4 |  |  |  | 
32 | O=C(CCCCNC(=O)CNc1ccccc1)NO | > 256 | > 80 | > 100 |  |  |  | 
33 | Cc1ccc2nc(NCC(=O)NCc3ccc(CC(=O)NO)cc3)sc2c1 | > 256 | 2.03 | 5.6 |  |  |  | 
34 | COc1cccc2sc(NCC(=O)NCCCCC(=O)NO)nc12 | > 256 | 0.51 | 1.89 |  |  |  | 
35 | O=C(CCCCCCNC(=O)c1nc2ccccc2s1)NO | > 256 | 14.3 | 36.4 |  |  |  | 
36 | O=C(CCCNC(=O)c1nc2ccccc2s1)NO | > 256 | 1.89 | 4.29 |  |  |  | 
37 | COc1ccccc1NCC(=O)NCCCCC(=O)NO | > 256 | 26.9 | 54.5 |  |  |  | 
38 | O=C(Cn1cc(CNC(=O)c2nc3ccccc3s2)nn1)NO | > 256 | 12.8 | 24.4 |  |  |  | 
39 | O=C(CCCCNC(=O)CNc1nc2ccc(Br)cc2s1)NO | > 256 | 1.49 | 4.49 |  |  |  | 
40 | O=C(CCCCNC(=O)CNc1nc2ccccc2s1)NO | > 256 | 3.33 | 7.02 |  |  |  | 
41 | O=C(CCCCCNC(=O)CNc1nc2ccccc2s1)NO | > 256 | 1.58 | 4.26 |  |  |  | 
42 | COc1ccc2nc(NCC(=O)NCc3ccc(CC(=O)NO)cc3)sc2c1 | > 256 | 6.23 | 15.6 |  |  |  | 
43 | O=C(CCCCCCNC(=O)CNc1nc2ccccc2s1)NO | > 256 | 8.77 | 14 |  |  |  | 
44 | O=C(Cc1ccc(CNC(=O)CNc2nc3cc(Br)ccc3s2)cc1)NO | > 256 | 2.48 | 6.3 |  |  |  | 
45 | O=C(CCCCCNC(=O)c1nc2ccccc2s1)NO | > 256 | 10.2 | 19.1 |  |  |  | 
46 | O=C(NO)c1ccc(CNC(=O)c2nc3ccccc3s2)cc1 | > 256 | 3.85 | 11.1 |  |  |  | 
47 | O=C(Cc1ccc(CNC(=O)CNc2nc3ccc(C(F)(F)F)cc3s2)cc1)NO | > 256 | 3.16 | 7.3 |  |  |  | 
